This is an account of results in paper PMC6615261, “Repurposing Azithromycin and Rifampicin Against Gram-Negative Pathogens by Combination With Peptidomimetics” (Frontiers in Cellular and Infection Microbiology, 2019).

Molecules are shown by their SMILES. A value given as a limit tells only on which side of the number the result lay.

The subject of test [1] is K. pneumoniae ST258. The experiment in a line: Potentiation of additional antibiotics (COMPAN1F plates), MIC. The test is classed as cell-based, Klebsiella pneumoniae. In outline: (§1)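 Broth microdilution per CLSI; combos at fixed peptidomimetic:antibiotic ratios (2:1 rifampicin, 1:4 azithromycin) chosen from checkerboards. Potentiation panels: standard antibiotic dilution plates plus peptidomimetic added immediately pre-inoculation; MIC read as usual.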

Test [2] relates to E. coli ST131. The description is as above. The test is classed as cell-based, Escherichia coli. In outline: as §1
In test [3] the test system is E. coli ST131. The settings on record: checkerboard. The procedure: (§2) The potential synergistic effects in peptidomimetic-antibiotic combinations were assessed by using a two-dimensional checkerboard assay (Garcia, [2010]). Briefly, twofold dilutions of peptide and antibiotic were prepared in MBH II media along the X- and Y-axis, respectively, in 96-well plates. The inoculum was added to the plates, and subsequently these were incubated for 18–20 h. All steps for inoculum preparation and broth microdilution were in accordance with the CLSI guidelines (Clinical and Laboratory Standards Institute, [2013]). The fractional inhibitory concentration index (FICI) was calculated as [MICA(A+B)/MICA(alone)] + [MICB(A+B)/MICB(alone)], where MICA(A+B) represents the MIC of antibiotic (A) in combination with peptidomimetic (B), while MICB(A+B) represents the MIC of peptidomimetic (B) in combination with antibiotic (A). MICA(alone) and MICB(alone) represent the MIC of each compound individually. FICI values of ≤0.5 were interpreted as synergy.

The test system of test [4] is K. pneumoniae ST258. The settings on record: checkerboard. The procedure:
as §2

The next test has as its system P. aeruginosa ATCC 27853. The settings on record: P. aeruginosa ATCC 27853; checkerboard. On the procedure: as §2
For test [5], the system named is E. coli clinical isolates and reference strains. The test can be described thus: MIC of fixed-ratio peptidomimetic 1-antibiotic combinations in clinical isolates and reference strains. The test is classed as cell-based, Escherichia coli. The settings on record: in combination with 0.5–1 μM peptidomimetic 1. The source says:
(§3) Bacterial strains used in this study comprise MDR clinical isolates of E. coli ST131 (Cerquetti et al., [2010]) and K. pneumoniae ST258 (Jana et al., [2017]), and American type culture collection (ATCC) strains: ATCC 25922 (E. coli), ATCC 13883 (K. pneumoniae), and ATCC 27853 (P. aeruginosa). Additional clinical isolates of E. coli, K. pneumoniae, and P. aeruginosa resistant to β-lactams (including carbapenems and cephalosporins) were provided by Laurent Poirel, Université de Fribourg, Switzerland. The following growth media was routinely used for bacterial culturing: Luria-Burtani (LB), cation-adjusted Mueller-Hinton agar (MHA) and broth (MHB II). All assays were performed in cation-adjusted MHA or MHB II. Antibiotics were purchased from Sigma-Aldrich and the peptidomimetic collection (Table S1) was curated and provided by Henrik Franzyk. […]
(§4) Minimal inhibitory concentrations (MICs) of peptidomimetics, antibiotics and their combinations were determined by broth microdilution according to the Clinical Laboratory Standards Institute performance standards (Clinical and Laboratory Standards Institute, [2013]). […] Potentiation of additional antibiotics by peptidomimetics was determined by using commercial 96-well plates containing varied concentrations of standard antibiotics (COMPAN1F; Trek Diagnostic Systems Inc.). The peptidomimetics were added immediately prior to inoculation with pathogen, and then MICs were determined as above. The MICs of peptidomimetic/antibiotic combinations were determined according to the method above, and the concentration ratios were selected based upon checkerboard results with 2:1 and 1:4 ratio of peptidomimetic with rifampicin or azithromycin, respectively. Minimal bactericidal concentrations (MBCs) were determined by using growth-curve assay plates. […] Growth was recorded at 10 min intervals as optical density (OD) at 600 nm during 24 h. […]

In test [6] the test system is P. aeruginosa clinical isolates and reference strains. The test is described as above. The test is classed as cell-based, Pseudomonas aeruginosa. The settings on record: with 1–8 μM of 1.
Source text: as §3, §4

Test [7] has as its system E. coli ST131. The settings on record: E. coli ST131; growth-curve assay. On the procedure: (§5) Minimal inhibitory concentrations (MICs) of peptidomimetics, antibiotics and their combinations were determined by broth microdilution according to the Clinical Laboratory Standards Institute performance standards (Clinical and Laboratory Standards Institute, [2013]). […] Since rifampicin and azithromycin mainly are used to treat infections with Gram-positive pathogens only CLSI clinical breakpoints were available for such bacteria. […] Potentiation of additional antibiotics by peptidomimetics was determined by using commercial 96-well plates containing varied concentrations of standard antibiotics (COMPAN1F; Trek Diagnostic Systems Inc.). The peptidomimetics were added immediately prior to inoculation with pathogen, and then MICs were determined as above. The MICs of peptidomimetic/antibiotic combinations were determined according to the method above, and the concentration ratios were selected based upon checkerboard results with 2:1 and 1:4 ratio of peptidomimetic with rifampicin or azithromycin, respectively. Minimal bactericidal concentrations (MBCs) were determined by using growth-curve assay plates. MIC plates were prepared as above, and then the plates were incubated at 37°C with continuous shaking. Growth was recorded at 10 min intervals as optical density (OD) at 600 nm during 24 h. At 24 h, for wells without growth, a sample was diluted 10-fold in sterile saline (0.9% sodium chloride) and plated onto MHA, following CLSI guidelines (Clinical and Laboratory Standards Institute, [1999]).

Test [8] has as its system K. pneumoniae ST258. The settings on record: K. pneumoniae ST258; growth-curve assay. On the procedure:
as §5

Another test concerns P. aeruginosa ATTC 27853. The settings on record: P. aeruginosa ATTC 27853; growth-curve assay. On the procedure: as §5

By MIC is commonly meant the least concentration at which growth counts as inhibited. `CO[C@H]1/C=C/O[C@@]2(C)Oc3c(C)c(O)c4c(O)c(c(/C=N/N5CCN(C)CC5)c(O)c4c3C2=O)NC(=O)/C(C)=C\C=C\[C@H](C)[C@H](O)[C@@H](C)[C@@H](O)[C@@H](C)[C@H](OC(C)=O)[C@@H]1C` [Rifampicin, rifampicin]: the “MIC of antibiotic in presence of peptidomimetic 1” value with K. pneumoniae ST258 [1] (+ 1 μM peptidomimetic 1) was at most 1 µg/mL; in the test with K. pneumoniae ST258 [1] (+ 1 μM peptidomimetic 1, listed as rifampicin), “below 1 μg/mL”; in the test with E. coli ST131 [2] (+ 0.5 μM peptidomimetic 1), at most 1 µg/mL; in the test on E. coli ST131 [2] (+ 0.5 μM peptidomimetic 1, listed as rifampicin) it was “below 1 μg/mL”. Further, the “MIC of antibiotic in presence of peptidomimetic 15” value was at most 1 µg/mL in the test on K. pneumoniae ST258 [1] (+ 1 μM peptidomimetic 15); “below 1 μg/mL” in the test on K. pneumoniae ST258 [1] (+ 1 μM peptidomimetic 15, listed as rifampicin); at most 1 µg/mL in the test with E. coli ST131 [2] (+ 0.5 μM peptidomimetic 15); “below 1 μg/mL” in the test on E. coli ST131 [2] (+ 0.5 μM peptidomimetic 15, listed as rifampicin). Further, the “MIC of antibiotic in presence of peptidomimetic 26” value in the test with K. pneumoniae ST258 [1] (+ 1 μM peptidomimetic 26) is at most 1 µg/mL; in the test on K. pneumoniae ST258 [1] (+ 1 μM peptidomimetic 26, listed as rifampicin) it was “below 1 μg/mL”; in the test on E. coli ST131 [2] (+ 0.25 μM peptidomimetic 26), at most 1 µg/mL; in the test with E. coli ST131 [2] (+ 0.25 μM peptidomimetic 26, listed as rifampicin), “below 1 μg/mL”. The MIC with K. pneumoniae ST258 [1] (Klebsiella pneumoniae, no peptidomimetic, read-out: MIC of antibiotic alone) was above 2 µg/mL; with E. coli ST131 [2] (Escherichia coli, no peptidomimetic, read-out: MIC of antibiotic alone), above 2 µg/mL. The “MIC of antibiotic alone” value in the test with K. pneumoniae ST258 [1] (no peptidomimetic) and in the test with E. coli ST131 [2] (no peptidomimetic) was above 2 µg/mL each time. Further, the “Antibiotic MIC alone” value came to 4 µg/mL with E. coli ST131 [3], 16 µg/mL with K. pneumoniae ST258 [4] and 32 µg/mL in the test on P. aeruginosa ATCC 27853. Besides, the “Antibiotic concentration to which most E. coli isolates proved susceptible in combination” value in [5] was in the range of 0.25 to 0.5 µg/mL. Moreover, the “MIC of antibiotic in combination, P. aeruginosa isolates (typical)” value in [6] was determined as 0.5 µg/mL. Moreover, the “MBC (antibiotic alone)” value was above 4 µg/mL with E. coli ST131 [7], above 16 µg/mL in the test with K. pneumoniae ST258 [8] and above 64 µg/mL in the test on P. aeruginosa ATTC 27853. Further, the entries for the “MIC (antibiotic alone)” value in the test with E. coli ST131 [7], in the test with K. pneumoniae ST258 [8] and in the test on P. aeruginosa ATTC 27853 were above 4 µg/mL, above 16 µg/mL and above 64 µg/mL, respectively.
On to `CC[C@H]1OC(=O)[C@H](C)[C@@H](O[C@H]2C[C@@](C)(OC)[C@@H](O)[C@H](C)O2)[C@H](C)[C@@H](O[C@@H]2O[C@H](C)C[C@H](N(C)C)[C@H]2O)[C@](C)(O)C[C@@H](C)CN(C)[C@H](C)[C@@H](O)[C@]1(C)O` [Azithromycin, azithromycin], for which the “Antibiotic MIC alone” value in the test with E. coli ST131 [3] is 8 µg/mL; in the test on K. pneumoniae ST258 [4] it was 32 µg/mL; in the test with P. aeruginosa ATCC 27853, above 128 µg/mL. Besides, in test [5], the “Antibiotic concentration to which most E. coli isolates proved susceptible in combination” value was 2 to 4 µg/mL. For the same compound, the “MIC of antibiotic in combination, P. aeruginosa isolates (typical)” value in test [6] lay in the range of 4 to 8 µg/mL. Also, the figures for the “MBC (antibiotic alone)” value in the test on E. coli ST131 [7], in the test with K. pneumoniae ST258 [8] and in the test on P. aeruginosa ATTC 27853 were above 16 µg/mL, above 32 µg/mL and above 128 µg/mL, respectively. Further, the “MIC (antibiotic alone)” value is 8 µg/mL in the test with E. coli ST131 [7], above 32 µg/mL in the test on K. pneumoniae ST258 [8] and above 128 µg/mL with P. aeruginosa ATTC 27853.
